Laboratory results reported in patent US6344179B1, “Fluoralkenyl nortropanes” (Emory University, priority 1999, dated 2002).
“Also recorded” adds a separate entry of the source.

Key:
[1] = In vivo regional brain tissue distribution of 18F-labeled ligands in rats; set-up: species or system Sprague Dawley rats; conditions: rat; for Regional uptake of radioactivity, Cerebellum / Regional uptake of radioactivity, Cortex (Cx) / Regional uptake of radioactivity, Striatum / Uptake of radioactivity, Blood / Uptake of radioactivity, Bone / Uptake of radioactivity, Brain: i.v., 18F-labeled
Description: The in vivo regional brain tissue distribution of [^18F]

rat brain DAT [2] = target: T1, rat brain DAT (Rattus norvegicus, UniProt P23977); test: In vivo specificity: RTI-113 block before the 18F ligand in rats
T1 construct: from tissue; host or cells: brain of living male Sprague Dawley rats (striatum, cortex, cerebellum dissected)
T1 sequence (P23977 whole entry): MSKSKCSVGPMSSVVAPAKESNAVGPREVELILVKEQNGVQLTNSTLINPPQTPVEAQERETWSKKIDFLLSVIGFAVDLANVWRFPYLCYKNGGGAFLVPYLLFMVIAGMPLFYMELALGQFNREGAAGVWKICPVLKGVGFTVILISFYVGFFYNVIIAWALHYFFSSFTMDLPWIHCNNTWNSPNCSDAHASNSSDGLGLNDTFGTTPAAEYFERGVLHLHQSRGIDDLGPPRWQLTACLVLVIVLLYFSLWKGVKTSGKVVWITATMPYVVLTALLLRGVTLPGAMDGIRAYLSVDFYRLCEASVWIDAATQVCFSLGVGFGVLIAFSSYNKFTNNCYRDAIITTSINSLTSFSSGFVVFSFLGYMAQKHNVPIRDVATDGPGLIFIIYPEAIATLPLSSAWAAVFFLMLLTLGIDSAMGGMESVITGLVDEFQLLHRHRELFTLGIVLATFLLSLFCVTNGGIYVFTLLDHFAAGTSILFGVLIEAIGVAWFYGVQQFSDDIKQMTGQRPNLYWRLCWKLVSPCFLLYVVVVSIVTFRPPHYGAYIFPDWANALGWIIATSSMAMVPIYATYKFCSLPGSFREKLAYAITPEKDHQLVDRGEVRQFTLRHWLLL
Protocol: To determine the in vivo specificity of FBNT analogs [^18F] […] 6a, 6d and 6e. The rats were sacrificed 60 minutes after injection of [^18F] […] 6a, 6d and 6e, in the DAT transporter rich striatum.

rat brain DAT [3] = target: T1, rat brain DAT; test: In vivo selectivity: block with monoamine transporter ligands before [18F]FBCINT in rats; conditions: 60 minutes
Protocol: FBCINT. The rats were sacrificed 60 minutes after injection of [^18F] FBCINT and the striatum, cortex, prefrontal cortex, olfactory tubercles and cerebellum were dissected and the uptake of radioactivity determined. The monoamine transporter ligands administered were RTI-113 (DAT), paroxetine (SERT) and reboxetine (NET). […] FBCINT in the DAT transporter rich striatum and olfactory tubercles. […] FBCINT.

[4] = PET brain imaging in a rhesus monkey; assay type: in vivo
Protocol: The regional distribution of E-[^18F] […] Dynamic emission data were acquired using a 35 frame acquisition protocol which included twelve 30 second scans, six one minute scans, six 3 minute scans, five 10 minute scans and six 20 minute scans.

striatal DAT [5] = test: Chase (displacement) study with β-CIT, PET in rhesus monkey; assay type: in vivo; conditions: for displacement from striatum by β-CIT: PET
Protocol: A chase study with E-[^18F] FBCINT and β-CIT, a DAT ligand, was also performed in the same rhesus monkey. At 195 minutes p.i. 3.0 mg (0.9 μmol/kg) of β-CIT, was administered intravenously and dynamic imaging was continued for an additional 40 minutes (eight 5 minute scans). […] The displacement of E-[^18F] […] The regional distribution and kinetic behavior of E-[^18F] […] FBFNT (6e) were next compared in the brain of awake rhesus monkeys.

striatal DAT [6] = test: PET imaging in awake rhesus monkeys; assay type: in vivo, rhesus monkey
Protocol: The regional kinetics of [^18F] […] Both [^18F] […] [^18F] […] The peak uptake ratio of striatumwcerebellum was 4:1 at 20 minutes for [^18F] […] 6d. The in vivo ratio of [1^18F] […] FECNT, 5:1. [^18F]

[7] = Stability to metabolism and in vivo loss of fluorine-18
DAT [8] = conditions: cited from earlier work
DAT [9] = conditions: non-human primates, within 2 h post injection; cited from earlier work
[10] = 60 min, 5 mg/kg RTI-113 i.v. 15 minutes prior

In the case of `COC(=O)C1C(c2ccc(Cl)cc2)CC2CCC1N2C/C=C/CF` (stereo not drawn) [6d, N-((E)-4-fluorobut-2-en-1-yl)-2β-carbomethoxy-3β-(4-chlorophenyl)nortropane], the “clearance from striatal tissue” value ([1]; at 120 minutes compared to 5 minutes post injection) is reported as 50%, the “Regional uptake of radioactivity, Cerebellum” value ([1]; 5 min) is reported as 0.52 % dose/g and the “Regional uptake of radioactivity, Cortex (Cx)” value ([1]; 5 min) is reported as 0.76 % dose/g. The “Regional uptake of radioactivity, Striatum” value ([1]; 5 min) was 1.33 % dose/g, the “Uptake of radioactivity, Blood” value ([1]; 5 min) was 0.14 % dose/g and the “Uptake of radioactivity, Bone” value ([1]; 5 min) was 0.30 % dose/g. The “Uptake of radioactivity, Brain” value ([1]; 5 min) was 0.66 % dose/g, the “Regional uptake of radioactivity, Cerebellum” value ([1]; 30 min) was 0.19 % dose/g and the “Regional uptake of radioactivity, Cortex (Cx)” value ([1]; 30 min) was 0.40 % dose/g. The “Regional uptake of radioactivity, Striatum” value ([1]; 30 min) was 1.31 % dose/g, the “Uptake of radioactivity, Blood” value ([1]; 30 min) was 0.16 % dose/g and the “Uptake of radioactivity, Bone” value ([1]; 30 min) was 0.80 % dose/g. For the same compound, the “Uptake of radioactivity, Brain” value ([1]; 30 min) was 0.29 % dose/g, the “Regional uptake of radioactivity, Cerebellum” value ([1]; 60 min) was 0.10 % dose/g and the “Regional uptake of radioactivity, Cortex (Cx)” value ([1]; 60 min) was 0.13 % dose/g. The “Regional uptake of radioactivity, Striatum” value ([1]; 60 min) was 0.61 % dose/g, the “Uptake of radioactivity, Blood” value ([1]; 60 min) was 0.10 % dose/g and the “Uptake of radioactivity, Bone” value ([1]; 60 min) was 1.35 % dose/g. For the same compound, the “Uptake of radioactivity, Brain” value ([1]; 60 min) was 0.14 % dose/g, the “Regional uptake of radioactivity, Cerebellum” value ([1]; 120 min) was 0.13 % dose/g and the “Regional uptake of radioactivity, Cortex (Cx)” value ([1]; 120 min) was 0.24 % dose/g. The “Regional uptake of radioactivity, Striatum” value ([1]; 120 min) was 0.69 % dose/g, the “Uptake of radioactivity, Blood” value ([1]; 120 min) was 0.13 % dose/g and the “Uptake of radioactivity, Bone” value ([1]; 120 min) was 1.9 % dose/g. For the same compound, the “Uptake of radioactivity, Brain” value ([1]; 120 min) was 0.17 % dose/g, the “Regional uptake of radioactivity, Striatum” value ([1]; 120 min, listed as [F-18]FBCINT) was 2.5 % dose/g and the “Regional uptake of radioactivity, Cerebellum” value (rat brain DAT [2]; [10]) was 0.12 % dose/g. For the same compound, the “Regional uptake of radioactivity, Cortex (Cx)” value (rat brain DAT [2]; [10]) was 0.14 % dose/g, the “Regional uptake of radioactivity, Striatum” value (rat brain DAT [2]; [10]) was 0.15 % dose/g and the “Uptake of radioactivity, Blood” value (rat brain DAT [2]; [10]) was 0.12 % dose/g. The “Uptake of radioactivity, Brain” value (rat brain DAT [2]; [10]) was 0.12 % dose/g, the “effect of RTI-113 on uptake in the striatum” value (rat brain DAT [2]; RTI-113 5 mg/kg i.v. 15 minutes prior, 60 minutes) was “significantly blocked” and the “effect of GBR 12909 on uptake in striatum and olfactory tubercles” value (rat brain DAT [3]; 5 mg/kg i.v. 15 minutes prior) was “significantly blocked”. The “effect of SERT and NET blocking agents on regional brain uptake” value (rat brain DAT [3]; 5 mg/kg i.v. 15 minutes prior) was “no effect”, the “Regional uptake, Cerebellum” value (rat brain DAT [3]; GBR 12909 5 mg/kg i.v.) was 0.15 % dose/g and the “Regional uptake, Cortex (CX) (dry tissue)” value (shortened to “Regional uptake, Cortex (CX)”) (rat brain DAT [3]; GBR 12909 5 mg/kg i.v.) was 0.69 % dose/g. For the same compound, the “Regional uptake, Olfactory Tubercle (dry tissue)” value (rat brain DAT [3]; GBR 12909 5 mg/kg i.v.) was 1.07 % dose/g, the “Regional uptake, Prefrontal Cx (dry tissue)” value (from here on “Regional uptake, Prefrontal Cx”) (rat brain DAT [3]; GBR 12909 5 mg/kg i.v.) was 1.02 % dose/g and the “Regional uptake, Striatum (dry tissue)” value (rat brain DAT [3]; GBR 12909 5 mg/kg i.v.) was 1.51 % dose/g. The “Regional uptake, Cerebellum” value (rat brain DAT [3]; No Block) was 0.13 % dose/g, the “Regional uptake, Cortex (CX)” value (rat brain DAT [3]; No Block) was 0.53 % dose/g and the “Regional uptake, Olfactory Tubercle (dry tissue)” value (rat brain DAT [3]; No Block) was 5.26 % dose/g. For the same compound, the “Regional uptake, Prefrontal Cx” value (rat brain DAT [3]; No Block) was 0.74 % dose/g, the “Regional uptake, Striatum (dry tissue)” value (rat brain DAT [3]; No Block) was 6.96 % dose/g and the “Regional uptake, Cerebellum” value (rat brain DAT [3]; Paroxetine 5 mg/kg i.v.) was 0.10 % dose/g. For the same compound, the “Regional uptake, Cortex (CX)” value (rat brain DAT [3]; Paroxetine 5 mg/kg i.v.) was 0.46 % dose/g, the “Regional uptake, Olfactory Tubercle (dry tissue)” value (rat brain DAT [3]; Paroxetine 5 mg/kg i.v.) was 5.06 % dose/g and the “Regional uptake, Prefrontal Cx” value (rat brain DAT [3]; Paroxetine 5 mg/kg i.v.) was 0.67 % dose/g. The “Regional uptake, Striatum (dry tissue)” value (rat brain DAT [3]; Paroxetine 5 mg/kg i.v.) was 4.47 % dose/g, the “Regional uptake, Cerebellum” value (rat brain DAT [3]; Reboxetine 5 mg/kg i.v.) was 0.12 % dose/g and the “Regional uptake, Cortex (CX)” value (rat brain DAT [3]; Reboxetine 5 mg/kg i.v.) was 0.41 % dose/g. The “Regional uptake, Olfactory Tubercle (dry tissue)” value (rat brain DAT [3]; Reboxetine 5 mg/kg i.v.) was 5.74 % dose/g, the “Regional uptake, Prefrontal Cx” value (rat brain DAT [3]; Reboxetine 5 mg/kg i.v.) was 0.77 % dose/g and the “Regional uptake, Striatum (dry tissue)” value (rat brain DAT [3]; Reboxetine 5 mg/kg i.v.) was 6.64 % dose/g. The “striatum (S) uptake by PET” value ([4]; 180-210 min) was 2.7 μCi/mL, the “striatum uptake” value ([4]; PET) was “high striatum uptake; also recorded: region of highest uptake in the brain” and the “displacement from striatum by β-CIT” value (striatal DAT [5]) was “striatal washout; also recorded: significant reduction of activity in the striatum”. The “displacement from striatum by β-CIT” value (striatal DAT [5]; listed as FBCINT) was “exhibited reversibility”, the “washout half-time on displacement by β-CIT” value (striatal DAT [5]; β-CIT 0.9 μmol/kg i.v. at 195 minutes p.i.) was 21 min and the “striatal washout / time course of uptake” value (striatal DAT [6]; awake rhesus monkey, decay corrected) was “very little if any washout; also recorded: appears constant at 115 minutes post injection”. For the same compound, the “initial uptake in striatum and cerebellum” value (striatal DAT [6]; awake rhesus monkeys) was “high initial uptake in the striatum and very little uptake in the cerebellum” and the “stability to metabolism and in vivo loss of fluorine-18” value [7] was “stable to metabolism and in vivo loss of the fluorine-18 radioisotope”.
In the case of `COC(=O)C1C(c2ccc(Cl)cc2)CC2CCC1N2C/C=C/[123I]` (stereo not shown) [MMG/142, IPT], the “in vitro selectivity (DA/5-HT)” value (DAT [8]) is listed as ~7 and the “striatal to cerebellum ratios” value (DAT [9]) is listed as 15 to 1.
